In ChEMBL document CHEMBL1201862, “PubChem BioAssay data set” (2004):
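How tested: cells in 96-well plates exposed to compound for 48 hours at five concentrations. GI50: concentration for 50% inhibition of growth.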 Calls of active or inactive are those of the source. Cut-off read from the data, not from the text of the source: active = GI50 up to about 1.1 µM and inactive = higher.

Experiments:
Experiment in all cases: inhibition of tumour cell growth, NCI panel, 48 h
[1] = tested on: DU-145
[2] = tested on: SN12C
[3] = tested on: T47D
[4] = tested on: SK-MEL-2
[5] = tested on: K562
[6] = tested on: SK-MEL-28
[7] = tested on: SR
[8] = tested on: EKVX
[9] = tested on: TK-10
[10] = tested on: CAKI-1
[11] = tested on: ACHN
[12] = tested on: HOP-62
[13] = tested on: MDA-MB-231
[14] = tested on: HL-60
[15] = tested on: LOX IMVI
[16] = tested on: SF-539
[17] = tested on: 786-0
[18] = tested on: PC-3
[19] = tested on: NCI/ADR-RES
[20] = tested on: MCF7

| SMILES | GI50 [1] | GI50 [2] | GI50 [3] | GI50 [4] | GI50 [5] | GI50 [6] | GI50 [7] | GI50 [8] | GI50 [9] | GI50 [10] | GI50 [11] | GI50 [12] | GI50 [13] | GI50 [14] | GI50 [15] | GI50 [16] | GI50 [17] | GI50 [18] | GI50 [19] | GI50 [20] |
| --- | --- | --- | --- | --- | --- | --- | --- | --- | --- | --- | --- | --- | --- | --- | --- | --- | --- | --- | --- | --- |
| O=C(O)C(Sc1ccc(Cl)cc1)Sc1ccc(Cl)cc1 | 71 µM (inactive) | 47 µM (inactive) | 64 µM (inactive) | 26.3 µM (inactive) | 33.1 µM (inactive) | 70 µM (inactive) | 39.6 µM (inactive) | 31.5 µM (inactive) | 48.6 µM (inactive) | 82.8 µM (inactive) | 47.4 µM (inactive) | 79.3 µM (inactive) | 66.8 µM (inactive) | 33.8 µM (inactive) | 41.9 µM (inactive) | 39.3 µM (inactive) | 48 µM (inactive) | 47.4 µM (inactive) | 47.3 µM (inactive) | 92.3 µM (inactive) |
| O=C(O)CN1C(=O)CN=C(c2ccccn2)c2cc(Cl)ccc21 | > 100 µM (inactive) | > 100 µM (inactive) | > 100 µM (inactive) | > 100 µM (inactive) | > 100 µM (inactive) | > 100 µM (inactive) | 0.547 µM (active) | > 100 µM (inactive) | > 100 µM (inactive) | > 100 µM (inactive) | > 100 µM (inactive) | > 100 µM (inactive) | > 100 µM (inactive) | 4.31 µM (inactive) | > 100 µM (inactive) | > 100 µM (inactive) | > 100 µM (inactive) | > 100 µM (inactive) | > 100 µM (inactive) | > 100 µM (inactive) |
| O=S(=O)(/C=C/C=C/S(=O)(=O)c1ccccc1)c1ccccc1 | 14.6 µM (inactive) | 2 µM (inactive) | 1.04 µM (active) | 2.72 µM (inactive) | 0.269 µM (active) | 1.32 µM (inactive) | 0.285 µM (active) | 1.72 µM (inactive) | 1.57 µM (inactive) | 1.24 µM (inactive) | 0.769 µM (active) | 6.76 µM (inactive) | 1.56 µM (inactive) | 0.256 µM (active) | 0.713 µM (active) | 3.88 µM (inactive) | 0.537 µM (active) | 4.68 µM (inactive) | 1.93 µM (inactive) | 0.845 µM (active) |
| COc1cc(C)cc2c(-c3c(O)cc(O)c4c3C[C@H](C)N[C@H]4C)cc(-c3cc(-c4c(O)cc(O)c5c4C[C@H](C)N[C@H]5C)c4cc(C)cc(OC)c4c3O)c(O)c12 | > 100 µM (inactive) | > 100 µM (inactive) | 63.8 µM (inactive) | > 100 µM (inactive) | > 100 µM (inactive) | > 100 µM (inactive) | > 100 µM (inactive) | > 100 µM (inactive) | > 100 µM (inactive) | > 100 µM (inactive) | > 100 µM (inactive) | 72.3 µM (inactive) | > 100 µM (inactive) | > 100 µM (inactive) |  | > 100 µM (inactive) | 26.9 µM (inactive) | > 100 µM (inactive) | > 100 µM (inactive) | > 100 µM (inactive) |
| N#Cc1c(N)c2c(c(-c3ccccc3)c1-c1ccccc1)C(=O)N(NC(=O)c1ccccc1)C2=O | > 100 µM (inactive) | > 100 µM (inactive) | 32.1 µM (inactive) | > 100 µM (inactive) | 96.8 µM (inactive) | > 100 µM (inactive) | 44.5 µM (inactive) | > 100 µM (inactive) | > 100 µM (inactive) | > 100 µM (inactive) | > 100 µM (inactive) |  | > 100 µM (inactive) | 58.2 µM (inactive) | > 100 µM (inactive) | 64.4 µM (inactive) | 76.9 µM (inactive) | 65.2 µM (inactive) | 89.5 µM (inactive) | 61.2 µM (inactive) |
| C/C(C=O)=C/[C@@]1(C)O[C@@H](C)[C@@](C)(O)[C@@H]1O | 78.9 µM (inactive) | 32.5 µM (inactive) | > 100 µM (inactive) | 80.5 µM (inactive) | 7.94 µM (inactive) | > 100 µM (inactive) | 2.58 µM (inactive) | > 100 µM (inactive) | 77.6 µM (inactive) | 19.9 µM (inactive) | 24.5 µM (inactive) | 63.1 µM (inactive) | > 100 µM (inactive) | > 100 µM (inactive) | 95.5 µM (inactive) | 40.2 µM (inactive) | 17 µM (inactive) | 47.5 µM (inactive) | 21.9 µM (inactive) | 25.6 µM (inactive) |
| NC(=O)c1nnc2cc(F)c(F)cc2c1N | 74.3 µM (inactive) | 84.9 µM (inactive) | 40.7 µM (inactive) | 15 µM (inactive) | > 100 µM (inactive) |  | > 100 µM (inactive) | 44.7 µM (inactive) | 35.2 µM (inactive) | 61.2 µM (inactive) | 52.1 µM (inactive) | 18.5 µM (inactive) | 44.1 µM (inactive) | > 100 µM (inactive) | 57.3 µM (inactive) | 36.4 µM (inactive) | 32.4 µM (inactive) | 95.1 µM (inactive) | 27.6 µM (inactive) | 37.9 µM (inactive) |
| CC(=O)Nc1ccc(N2C(=O)/C(=C\c3cccc(Oc4ccccc4)c3)S(=O)(=O)C2c2ccccc2)cc1 (centres undefined) | 39.1 µM (inactive) | 46.5 µM (inactive) | 35.9 µM (inactive) | > 100 µM (inactive) | 37.3 µM (inactive) | 91 µM (inactive) | 31.4 µM (inactive) | > 100 µM (inactive) | > 100 µM (inactive) | > 100 µM (inactive) | 74.1 µM (inactive) | > 100 µM (inactive) | > 100 µM (inactive) | 30.3 µM (inactive) | 41 µM (inactive) | 24.3 µM (inactive) | > 100 µM (inactive) | 61.1 µM (inactive) | 37.2 µM (inactive) | 32.2 µM (inactive) |
| Cc1ccc(/C=C2\N=C(N3CCCCC3)NC2=O)cc1 | > 100 µM (inactive) | > 100 µM (inactive) | 58.1 µM (inactive) | > 100 µM (inactive) |  | > 100 µM (inactive) | > 100 µM (inactive) | > 100 µM (inactive) | > 100 µM (inactive) | > 100 µM (inactive) | > 100 µM (inactive) | > 100 µM (inactive) | > 100 µM (inactive) | 71.1 µM (inactive) | 94.4 µM (inactive) | > 100 µM (inactive) | > 100 µM (inactive) | > 100 µM (inactive) | 70.8 µM (inactive) | > 100 µM (inactive) |
| Clc1ccc(-c2nc3cc(Cl)ccc3[nH]2)cc1 | 31.8 µM (inactive) | 26.2 µM (inactive) | 26.5 µM (inactive) | 26.1 µM (inactive) | 38.9 µM (inactive) | 47.9 µM (inactive) | 32.7 µM (inactive) | 34.9 µM (inactive) | 30.8 µM (inactive) | > 100 µM (inactive) | 39.8 µM (inactive) | 34.4 µM (inactive) | > 100 µM (inactive) | 39.9 µM (inactive) | 29.1 µM (inactive) | 22.6 µM (inactive) | 35.2 µM (inactive) | 27.2 µM (inactive) | 19.9 µM (inactive) | 35.6 µM (inactive) |
| O=c1[nH]/c(=C/c2ccc(OCc3ccccc3)cn2)c(=O)[nH]/c1=C/c1ccc(O)cc1 | 0.984 µM (active) | 1.04 µM (active) | 1.76 µM (inactive) | 1.33 µM (inactive) | 0.859 µM (active) | 1.79 µM (inactive) | 1.4 µM (inactive) | 2.71 µM (inactive) | 0.931 µM (active) | 0.834 µM (active) | 1.67 µM (inactive) | 1.88 µM (inactive) | 1.6 µM (inactive) | 0.298 µM (active) | 0.507 µM (active) | 0.461 µM (active) | 0.612 µM (active) | 1.13 µM (inactive) | 0.774 µM (active) | 1 µM (active) |
| CCO[C@@]12CCC3CC4CC[C@@](OCC)(O1)C4C32 (some centres undefined) | > 100 µM (inactive) | > 100 µM (inactive) | > 100 µM (inactive) | > 100 µM (inactive) | > 100 µM (inactive) | > 100 µM (inactive) | > 100 µM (inactive) | > 100 µM (inactive) | > 100 µM (inactive) | > 100 µM (inactive) | > 100 µM (inactive) | > 100 µM (inactive) | > 100 µM (inactive) | > 100 µM (inactive) | > 100 µM (inactive) | > 100 µM (inactive) | > 100 µM (inactive) | > 100 µM (inactive) | > 100 µM (inactive) | > 100 µM (inactive) |
| CCCCCCCCCCCCCCCCOP(=O)(O)OP(=O)(O)OCC1OC(n2cnc3c(N)ncnc32)C(O)C1O (centres undefined) | 69.3 µM (inactive) | 36.3 µM (inactive) | > 100 µM (inactive) | 49.8 µM (inactive) | 46.8 µM (inactive) | 24.5 µM (inactive) | 31.8 µM (inactive) | > 100 µM (inactive) | > 100 µM (inactive) | 99.3 µM (inactive) | > 100 µM (inactive) | 30.5 µM (inactive) | > 100 µM (inactive) | 66.7 µM (inactive) | > 100 µM (inactive) |  | 80.5 µM (inactive) | 38.2 µM (inactive) | 78.9 µM (inactive) | 56 µM (inactive) |
| Cn1ccc2c(c1=O)C(=O)OC2(C)C [CERPEGIN] | > 100 µM (inactive) | > 100 µM (inactive) | > 100 µM (inactive) |  | > 100 µM (inactive) | > 100 µM (inactive) | > 100 µM (inactive) | > 100 µM (inactive) | > 100 µM (inactive) | > 100 µM (inactive) | > 100 µM (inactive) | > 100 µM (inactive) | > 100 µM (inactive) | > 100 µM (inactive) | > 100 µM (inactive) | > 100 µM (inactive) | > 100 µM (inactive) | > 100 µM (inactive) | > 100 µM (inactive) | > 100 µM (inactive) |
